System: P388/ADR (adriamycine resistance cell line) murine leukemia
Experiment: MDR in vivo test: reversal of adriamycine resistance in P388/ADR murine leukemia (survival)
Conditions: P388/ADR mice, daily i.p. day 1-10
Procedure: Male B6D2F1 mice (18-21 g) were injected intraperitoneally with 1×10^5 P388/ADR cells at day 0. Daily intraperitoneal treatment with adriamycine, a test compound of formula (I) or a combination of both was installed from day 1 until day 10. Control animals received the vehicle (15% 4-OH-propyl-β-cyclodextrine in saline). Each group consisted of 8 animals. Adriamycine was dosed at a concentration of 1.25 mg/kg body weight, half the maximal tolerable dose of adriamycine in this treatment schedule. The test compound was dosed at 20, 10, 5, 2.5, 1.25 and 0.63 mg/kg either as single treatment or combined with adriamycine.
Survival of the animals was recorded each day and expressed as a percentage of the median survival in the treated groups compared to the median survival in the control group, the latter to be said to be 100%.
Table C-1 lists the effect of compound 6 and adriamycine on the survival of mice injected with P388/ADR leukemia.
doses of compound 6 and adriamycine are expressed as mg/kg body weight.
the column “Survival Days” give the median day of death after inoculation of 1×10^5 P388/ADR cells at day 0, with the minimum and maximum number of days shown in parantheses
column “% Change vs. ADR” give the difference in MST % of the different groups compared to the MST % in the adriamycine-monotherapy group.

Compound	Survival Days med (min-max) (compound 6 5 mg/kg, adriamycine 0 mg/kg)	MST % (compound 6 20 mg/kg, adriamycine 0 mg/kg, control = 100%) [oo]	Survival Days med (min-max) (compound 6 0 mg/kg, adriamycine 1.25 mg/kg)
COC(=O)c1cnc2n1CCc1ccccc1C2=C1CCN(CCc2ccc(OCc3ccc4ccccc4n3)cc2)CC1 [Compound 6, methyl 6,11-dihydro-11-[1-[2-[4-(2-quinolinylmethoxy)phenyl]ethyl]-4-piperidinylidene]-5H-imidazo[2,1-b][3]-benzazepine-3-carboxylate]	11.5 (10-13) days	1	
COc1cccc2c1C(=O)c1c(O)c3c(c(O)c1C2=O)C[C@@](O)(C(=O)CO)C[C@@H]3O[C@H]1C[C@H](N)[C@H](O)[C@H](C)O1 [Adriamycine, adriamycine, reference compound]			13 (12-15) days
